Measured values from patent publication US20250353874A1, “GLUCOCORTICOID RECEPTOR AGONISTS” (Eli Lilly and Company, priority 2021, published 2025).

Target: hGR (GR-LBD) (Homo sapiens (Human), UniProt P04150)
Test: hGR CoActivator Recruitment Assay (LanthaScreen TR-Fret GR Coactivator Assay)
Format: biochemical
Conditions: 10-point dilution, top concentration 200 nM, positive control 4 uM dexamethasone, read-out: IC50
Description: hGR CoActivator Recruitment Assay
The activity of glucocorticoid compounds was measured using the LanthaScreen TR-Fret GR Coactivator Assay from Life Technologies (A15899). The compounds were acoustically transferred to an assay plate in a 3-fold 10-point serial dilution with a top concentration of 200 nM. Ten microliters of a 2× solution of GR-LBD was added to the compound plate and incubated for 10 min. Then ten microliters of a 2× solution of Fluoresein-SRC1-4 and Tb labelled anti-GST antibody were added to the plate. The plate was incubated in the dark for two hours and then read on an Envision plate reader, with excitation at 340 nm and emission at 520 nm (Fluorescein) and 490 nm (Terbium). The emission ratio of 520/490 was analyzed in Genedata. To obtain percent activity, the data was compared to a negative control of DMSO and positive control of 4 uM dexamethasone.

hGR (GR-LBD), sequence (P04150 524-758): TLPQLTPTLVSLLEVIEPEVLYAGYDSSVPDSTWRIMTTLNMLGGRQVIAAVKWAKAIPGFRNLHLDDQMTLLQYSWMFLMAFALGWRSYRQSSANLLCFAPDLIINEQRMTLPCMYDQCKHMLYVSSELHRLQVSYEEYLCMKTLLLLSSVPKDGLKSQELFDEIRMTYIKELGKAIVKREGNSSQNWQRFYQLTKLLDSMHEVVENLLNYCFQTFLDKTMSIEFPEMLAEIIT

| SMILES | IC50 [nM] |
| --- | --- |
| Cc1ccc(OCc2cccc(N)c2)c(F)c1[C@@H]1O[C@@H]2C[C@H]3[C@@H]4CCC5=CC(=O)C=C[C@]5(C)[C@H]4[C@@H](O)C[C@]3(C)[C@]2(C(=O)CO)O1 [Example 1, (6aR,6bS,7S,8aS,8bS,10R,11aR,12aS,12bS)-10-(3-((3-Aminobenzyl)oxy)-2-fluoro-6-methylphenyl)-7-hydroxy-8b-(2-hydroxyacetyl)-6a,8a-dimethyl-1,2,6a,6b,7,8,8a,8b,11a,12,12a,12b-dodecahydro-4H-naphtho[2′,1′:4,5]indeno[1,2-d][1,3]dioxol-4-one] | 2.12 |
| Cc1ccc(OCc2cccc(N)c2)c(F)c1[C@H]1O[C@@H]2C[C@H]3[C@@H]4CCC5=CC(=O)C=C[C@]5(C)[C@H]4[C@@H](O)C[C@]3(C)[C@]2(C(=O)CO)O1 [Example 2, (6aR,6bS,7S,8aS,8bS,10S,11aR,12aS,12bS)-10-(3-((3-Aminobenzyl)oxy)-2-fluoro-6-methylphenyl)-7-hydroxy-8b-(2-hydroxyacetyl)-6a,8a-dimethyl-1,2,6a,6b,7,8,8a,8b,11a,12,12a,12b-dodecahydro-4H-naphtho[2′,1′:4,5]indeno[1,2-d][1,3]dioxol-4-one] | 1.44 |
| COc1ccc(OCc2cccc(N)c2)c(F)c1[C@@H]1O[C@@H]2C[C@H]3[C@@H]4CCC5=CC(=O)C=C[C@]5(C)[C@H]4[C@@H](O)C[C@]3(C)[C@]2(C(=O)CO)O1 [Example 4, (6aR,6bS,7S,8aS,8bS,10R,11aR,12aS,12bS)-10-(3-((3-Aminobenzyl)oxy)-2-fluoro-6-methoxyphenyl)-7-hydroxy-8b-(2-hydroxyacetyl)-6a,8a-dimethyl-1,2,6a,6b,7,8,8a,8b,11a,12,12a,12b-dodecahydro-4H-naphtho[2′,1′:4,5]indeno[1,2-d][1,3]dioxol-4-one] | 2.47 |
| COc1ccc(OCc2cccc(N)c2)c(F)c1[C@H]1O[C@@H]2C[C@H]3[C@@H]4CCC5=CC(=O)C=C[C@]5(C)[C@H]4[C@@H](O)C[C@]3(C)[C@]2(C(=O)CO)O1 [Example 5, (6aR,6bS,7S,8aS,8bS,10S,11aR,12aS,12bS)-10-(3-((3-Aminobenzyl)oxy)-2-fluoro-6-methoxyphenyl)-7-hydroxy-8b-(2-hydroxyacetyl)-6a,8a-dimethyl-1,2,6a,6b,7,8,8a,8b,11a,12,12a,12b-dodecahydro-4H-naphtho[2′,1′:4,5]indeno[1,2-d][1,3]dioxol-4-one] | 1.4 |

Same assay, conditions: top concentration 200 nM, read-out: relative IC50

| IC50 [nM] | SMILES |
| --- | --- |
| > 200 | C[C@]12C=CC(=O)C=C1CC[C@@H]1[C@@H]2[C@@H](O)C[C@@]2(C)[C@H]1C[C@H]1O[C@H](c3c(F)cccc3OCc3cccc(N)c3)O[C@]12C(=O)CO [Example 45, (6aR,6bS,7S,8aS,8bS,10S,11aR,12aS,12bS)-10-(2-((3-aminobenzyl)oxy)-6-fluorophenyl)-7-hydroxy-8b-(2-hydroxyacetyl)-6a,8a-dimethyl-1,2,6a,6b,7,8,8a,8b,11a,12,12a,12b-dodecahydro-4H-naphtho[2′,1′:4,5]indeno[1,2-d][1,3]dioxol-4-one] |
| > 200 | C[C@]12C=CC(=O)C=C1CC[C@@H]1[C@@H]2[C@@H](O)C[C@@]2(C)[C@H]1C[C@H]1O[C@H](c3c(Cl)cccc3OCc3cccc(N)c3)O[C@]12C(=O)CO [Example 52, (6aR,6bS,7S,8aS,8bS,10S,11aR,12aS,12bS)-10-(2-((3-aminobenzyl)oxy)-6-chlorophenyl)-7-hydroxy-8b-(2-hydroxyacetyl)-6a,8a-dimethyl-1,2,6a,6b,7,8,8a,8b,11a,12,12a,12b-dodecahydro-4H-naphtho[2′,1′:4,5]indeno[1,2-d][1,3]dioxol-4-one] |
| > 200 | Cc1ccc(OCc2ccccc2N)cc1[C@@H]1O[C@@H]2C[C@H]3[C@@H]4CCC5=CC(=O)C=C[C@]5(C)[C@H]4[C@@H](O)C[C@]3(C)[C@]2(C(=O)CO)O1 [Example 80, (6aR,6bS,7S,8aS,8bS,10R,11aR,12aS,12bS)-10-(5-((2-aminobenzyl)oxy)-2-methylphenyl)-7-hydroxy-8b-(2-hydroxyacetyl)-6a,8a-dimethyl-1,2,6a,6b,7,8,8a,8b,11a,12,12a,12b-dodecahydro-4H-naphtho[2′,1′:4,5]indeno[1,2-d][1,3]dioxol-4-one] |
